What is called EC50 is the concentration giving half of the maximal effect.

Results on four compounds are retold here after patent publication US9499550B2 (BRISTOL-MYERS SQUIBB COMPANY, priority 2012, dated 2016).

For assay [1], the system named is HCV genotype 1b (Con1) replicon in HUH-7 cells. As to the kind of experiment: HCV replicon luciferase reporter assay, genotype 1b. The note with it: Hepatitis C virus, Huh-7, 72 h, HCV genotype 1b replicon luciferase, 3 days incubation. The class given is cell-based. An outline of the steps:
(§1)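 Replicon inhibition for both genotypes was measured as Renilla luciferase signal (EnduRen, 7.5 μM final, 2 h) after 3-day, 37° C exposure of replicon-bearing HUH-7 cells in 4% FCS DMEM, 0.5% DMSO. The 1b construct carries S1179I; the 1a H77 construct carries P1496L and S2204I. Twenty-point, 3-fold dilutions were fitted four-parametrically for EC50, and CC50 was taken from multiplexed Cell Titer-Blue.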
In general terms: A replicon is a self-replicating genome or part of one, used to study replication in cells.

Assay [2] deals with HCV genotype 1a (H77 strain) replicon in HUH-7 cells. Briefly: HCV replicon luciferase reporter assay, genotype 1a. The format is cell-based. Particulars: Hepatitis C virus, Huh-7, 72 h, HCV genotype 1a replicon luciferase, 3 days incubation. An outline of the steps:
as §1

Molecules are shown by their SMILES. Where two headings read alike, the source gives them in different places. A value given as a limit tells only on which side of the number the result lay.

As to `[2H]C([2H])([2H])C(OC(=O)N[C@@H]1C(=O)N2C[C@H](Oc3nccc4c5c(ccc34)N(C)CCO5)C[C@H]2C(=O)N[C@]2(C(=O)NS(=O)(=O)C3CC3)C[C@H]2/C=C\CC[C@@H](C)C[C@H]1C)(C([2H])([2H])[2H])C([2H])([2H])[2H]` [Compound 5288, 1,1,1,3,3,3-hexadeutero-2-(trideuteromethyl)propan-2-yl((2R,6S,7R,9R,13aS,14aR,16aS,Z)-14a-((cyclopropylsulfonyl)carbamoyl)-7,9-dimethyl-2-((4-methyl-3,4-dihydro-2H-[1,4]oxazino[2,3-f]isoquinolin-7-yl)oxy)-5,16-dioxo-1,2,3,5,6,7,8,9,10,11,13a,14,14a,15,16,16a-hexadecahydrocyclopropa[e]pyrrolo[1,2-a][1,4]diazacyclopentadecin-6-yl)carbamate], the EC50 was less than 5.46 nM in assay [1] (read-out: LE_1b (EC50, range)) and less than 5.46 nM in assay [2] (read-out: LE_1a (EC50, range)).

As to `C[C@H]1CC/C=C\[C@@H]2C[C@@]2(C(=O)NS(=O)(=O)C2CC2)NC(=O)[C@@H]2C[C@@H](Oc3nccc4c5c(ccc34)N(C)CCO5)CN2C(=O)[C@@H](NC(=O)c2ccc(N(C)C)cc2)[C@H](C)C1` [Compound 5289, (2R,6S,7R,9S,13aS,14aR,16aS,Z)—N-(cyclopropylsulfonyl)-6-(4-(dimethylamino)benzamido)-7,9-dimethyl-2-((4-methyl-3,4-dihydro-2H-[1,4]oxazino[2,3-f]isoquinolin-7-yl)oxy)-5,16-dioxo-1,2,3,5,6,7,8,9,10,11,13a,14,14a,15,16,16a-hexadecahydrocyclopropa[e]pyrrolo[1,2-a][1,4]diazacyclopentadecine-14a-carboxamide], the EC50 in assay [1] (read-out: LE_1b (EC50, range)) is less than 5.46 nM; in assay [2] (read-out: LE_1a (EC50, range)) it was 4.82 to 103 nM.

`C[C@@H]1CC/C=C\[C@@H]2C[C@@]2(C(=O)NS(=O)(=O)C2CC2)NC(=O)[C@@H]2C[C@@H](Oc3nccc4c5c(ccc34)N(C)CCO5)CN2C(=O)[C@@H](NC(=O)c2ccc(N(C)C)cc2)[C@H](C)C1` [Compound 5290, (2R,6S,7R,9R,13aS,14aR,16aS,Z)—N-(cyclopropylsulfonyl)-6-(4-(dimethylamino)benzamido)-7,9-dimethyl-2-((4-methyl-3,4-dihydro-2H-[1,4]oxazino[2,3-f]isoquinolin-7-yl)oxy)-5,16-dioxo-1,2,3,5,6,7,8,9,10,11,13a,14,14a,15,16,16a-hexadecahydrocyclopropa[e]pyrrolo[1,2-a][1,4]diazacyclopentadecine-14a-carboxamide]: the EC50 in assay [1] (read-out: LE_1b (EC50)) was 0.64 nM; in assay [1] (read-out: LE_1b (EC50, range)), less than 5.46 nM; in assay [2] (read-out: LE_1a (EC50)) it was 1.25 nM; in assay [2] (read-out: LE_1a (EC50, range)), less than 5.46 nM.

As to `C[C@H]1CC/C=C\[C@@H]2C[C@@]2(C(=O)NS(=O)(=O)C2CC2)NC(=O)[C@@H]2C[C@@H](Oc3nccc4c5c(ccc34)N(C)CCO5)CN2C(=O)[C@@H](NC(=O)O[C@@H]2C[C@@H]3C[C@@H]3C2)[C@H](C)C1` [Compound 5291, (1R,3r,5 S)-bicyclo[3.1.0]hexan-3-yl((2R,6S,7R,9S,13aS,14aR,16aS,Z)-14a-((cyclopropylsulfonyl)carbamoyl)-7,9-dimethyl-2-((4-methyl-3,4-dihydro-2H-[1,4]oxazino[2,3-f]isoquinolin-7-yl)oxy)-5,16-dioxo-1,2,3,5,6,7,8,9,10,11,13a,14,14a,15,16,16a-hexadecahydrocyclopropa[e]pyrrolo[1,2-a][1,4]diazacyclopentadecin-6-yl)carbamate], the EC50 is less than 5.46 nM in assay [1] (read-out: LE_1b (EC50, range)) and less than 5.46 nM in assay [2] (read-out: LE_1a (EC50, range)).
